Measured values: patent US10221163B2 (priority 2015, dated 2019)
Where two headings read alike, the source gives them in different places.

Legend:
[1] = tested on: Pseudomonas aeruginosa efflux− (MB9799), IMP-1; type: cell-based; details: concentration restoring susceptibility to imipenem at 2 μg/mL in the presence of a class A, C, D serine β-lactamase inhibitor closely related to relebactam
Method in brief: (§1)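 P. aeruginosa PAO1-derived IMP-1 strains, efflux+ MB9798 and efflux− MB9799, tested by standard microbroth MIC with imipenem and/or ceftazidime fixed, usually at CLSI breakpoint, plus fixed class A/C β-lactamase inhibitor against AmpC. Inhibitor titrated; concentration restoring susceptibility recorded; MB9798/MB9799 fold difference indicates efflux.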

VIM-1 = VIM-1 (Pseudomonas aeruginosa (strain ATCC 15692 / DSM 22644 / CIP 104116 / JCM 14847 / LMG 12228 / 1C / PRS 101 / PAO1), UniProt A0A0F7KYQ8); assay: biochemical; details: CCF2-FA substrate, 30 pM enzyme, 2 hours at 25° C.
Method in brief: (§2)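 Test compound, enzyme and the FRET cephalosporin substrate CCF2-FA are incubated together for 2 hours at 25° C. Cleavage is followed by fluorescence, and IC50 values are derived from semi-logarithmic inhibition curves fitted with a 4-parameter model.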

[2] = tested on: Pseudomonas aeruginosa MB9798 vs MB9799; details: ratio MITC95 PA_9798/MITC95 PA_9799
Method in brief: as §1

IMP-1 = IMP-1 (Serratia marcescens, UniProt P52699); assay: biochemical; type: biochemical; details: fluorescence assay, CCF2-FA substrate, 2 pM enzyme, 2 hours at 25° C.; read-out: IMP-1 IC50
Method in brief: as §2

NDM-1 = NDM-1 (Klebsiella pneumoniae, UniProt C7C422); assay: biochemical; type: biochemical; details: fluorescence assay, CCF2-FA substrate, 1 pM enzyme, 2 hours at 25° C.; read-out: NDM-1 IC50
Method in brief: as §2

[3] = tested on: Pseudomonas aeruginosa efflux+ (MB9798), IMP-1; type: cell-based; details: concentration restoring susceptibility to imipenem at 2 μg/mL in the presence of a class A, C, D serine β-lactamase inhibitor closely related to relebactam
Method in brief: as §1

[4] = tested on: Klebsiella pneumoniae expressing VIM-1 (IHMA599644); type: cell-based; details: with imipenem 1 μg/ml; 95% inhibition of bacterial growth
Method in brief: (§3)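 Growth by absorbance after 22–24 h at 35°C defined the read-out, with imipenem fixed at 1 μg/ml alongside compound. Inocula came from overnight blood-agar colonies at 35°C, resuspended in saline and diluted 1:100 in 1.1×CAMHB.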

[5] = tested on: Escherichia coli expressing NDM-1 (CLB30005, CLB30016); type: cell-based; details: with imipenem 1 μg/ml; 95% inhibition of bacterial growth
Method in brief: as §3

[6] = tested on: Serratia marcescens expressing IMP-1 (CL5741); type: cell-based; details: with imipenem 1 μg/ml; 95% inhibition of bacterial growth
Method in brief: as §3

[7] = fluorescence assay, read-out: VIM-1 IC50

Chain of IMP-1 (P52699 whole entry, looked up, species assumed): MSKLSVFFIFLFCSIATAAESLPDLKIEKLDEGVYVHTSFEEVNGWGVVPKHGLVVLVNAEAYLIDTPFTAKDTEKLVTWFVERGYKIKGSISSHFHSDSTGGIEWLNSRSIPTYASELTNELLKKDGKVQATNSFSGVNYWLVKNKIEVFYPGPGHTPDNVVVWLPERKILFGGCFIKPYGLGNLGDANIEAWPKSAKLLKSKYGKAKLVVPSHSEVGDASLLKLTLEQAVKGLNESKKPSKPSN
Chain of NDM-1 (C7C422 whole entry, looked up, species assumed): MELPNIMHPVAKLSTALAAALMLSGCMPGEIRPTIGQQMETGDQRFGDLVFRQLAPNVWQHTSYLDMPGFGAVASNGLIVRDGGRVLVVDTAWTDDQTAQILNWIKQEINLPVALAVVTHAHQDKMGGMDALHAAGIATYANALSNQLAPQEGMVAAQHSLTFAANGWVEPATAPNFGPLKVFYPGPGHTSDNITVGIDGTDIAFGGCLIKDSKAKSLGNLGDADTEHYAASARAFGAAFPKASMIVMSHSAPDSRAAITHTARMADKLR

Row | SMILES | P. aeruginosa expressing IMP-1, efflux − (MB9799) MITC95 [1] [µM] | IC50 (VIM-1; [7]) [nM] | Efflux ratio [2] | IC50 (IMP-1) [nM] | IC50 (NDM-1) [nM] | P. aeruginosa expressing IMP-1, efflux + (MB9798) MITC95 [3] [µM] | Klebsiella pneumoniae expressing VIM-1 (IHMA599644) MITC95 [4] [µM] | Escherichia coli expressing NDM-1 (CLB30016) MITC95 [5] [µM] | Serratia marcescens expressing IMP-1 (CL5741) MITC95 [6] [µM] | IC50 (VIM-1; VIM-1 IC50, fluorescence assay) [nM]
1 | Nc1nc2c(-c3ccc(S(=O)(=O)NC4CNC4)c(S(N)(=O)=O)c3-c3nn[nH]n3)cccc2s1 [Example 146, 4-(2-aminobenzo[d]thiazol-4-yl)-N1-(azetidin-3-yl)-3-(2H-tetrazol-5-yl)benzene-1,2-disulfonamide] | 0.7813 | 0.224 | 0.50 | 0.356 | 0.0372 | 0.3906 | 1.563 | 3.125 | 0.7813 | –
2 | Nc1nc2c(-c3ccc(S(=O)(=O)N4CC(N)C4)c(S(N)(=O)=O)c3-c3nn[nH]n3)cccc2s1 [Example 147, 6-((3-aminoazetidin-1-yl)sulfonyl)-3-(2-aminobenzo[d]thiazol-4-yl)-2-(2H-tetrazol-5-yl)benzenesulfonamide] | 3.125 | 0.559 | 1.00 | 0.494 | 0.55 | 3.125 | 12.5 | 25 | 6.25 | –
3 | Nc1nc2c(-c3ccc(S(=O)(=O)N4CCC(N)CC4)c(S(N)(=O)=O)c3-c3nn[nH]n3)cccc2s1 [Example 148, 3-(2-aminobenzo[d]thiazol-4-yl)-6-((4-aminopiperidin-1-yl)sulfonyl)-2-(2H-tetrazol-5-yl)benzenesulfonamide] | 1.563 | 0.749 | 2.00 | 0.49 | 0.213 | 3.125 | 6.25 | 12.5 | 3.125 | –
4 | Nc1nc2c(-c3ccc(S(=O)(=O)NCC4(N)CC4)c(S(N)(=O)=O)c3-c3nn[nH]n3)cccc2s1 [Example 149, 4-(2-aminobenzo[d]thiazol-4-yl)-N1-((1-aminocyclopropyl)methyl)-3-(2H-tetrazol-5-yl)benzene-1,2-disulfonamide] | 3.125 | 0.739 | 1.00 | 0.993 | 0.216 | 3.125 | 6.25 | 12.5 | 6.25 | –
5 | CN(C)S(=O)(=O)c1ccc(-c2cccc3sc(N)nc23)c(-c2nn[nH]n2)c1S(N)(=O)=O [Example 151, 4-(2-aminobenzo[d]thiazol-4-yl)-N1,N1-dimethyl-3-(2H-tetrazol-5-yl)benzene-1,2-disulfonamide] | 3.125 | 9.22 | 16.00 | 2.43 | 5.94 | 50 | 50 | 12.5 | 6.25 | –
6 | CNS(=O)(=O)c1ccc(-c2cccc3sc(N)nc23)c(-c2nn[nH]n2)c1S(N)(=O)=O [Example 152, 4-(2-aminobezno[d]thiazol-4-yl)-N1-methyl-3-(2H-tetrazol-5-yl)benzene-1,2-disulfonamide] | 1.563 | 0.195 | 8.00 | 0.264 | 0.072 | 12.5 | 6.25 | 3.125 | 3.125 | –
7 | Nc1nc2c(-c3ccc(S(=O)(=O)NCC(=O)O)c(S(N)(=O)=O)c3-c3nn[nH]n3)cccc2s1 [Example 153, ((4-(2-aminobenzo[d]thiazol-4-yl)-2-sulfamoyl-3-(2H-tetrazol-5-yl)phenyl)sulfonyl)glycine] | 12.5 | – | 1.00 | 0.704 | 0.28 | 12.5 | 100 | 50 | 25 | 1.05
8 | Nc1nc2c(-c3ccc(S(=O)(=O)NC[C@@H](N)C(=O)O)c(S(N)(=O)=O)c3-c3nn[nH]n3)cccc2s1 [Example 154, (R)-2-amino-3-((4-(2-aminobenzo[d]thiazol-4-yl)-2-sulfamoyl-3-(2H-tetrazol-5-yl)phenyl)sulfonamido)propanoic acid] | 6.25 | 0.28 | 0.50 | 0.155 | 0.067 | 3.125 | 25 | 50 | 6.25 | –
9 | Nc1ccc(-c2ccc(S(N)(=O)=O)c(S(N)(=O)=O)c2-c2nn[nH]n2)cn1 [Example 155, 4-(6-Aminopyridin-3-yl)-3-(2H-tetrazol-5-yl)benzene-1,2-disulfonamide] | 1.281 | 0.804 | 4.88 | 0.658 | 1.64 | 6.25 | 2.563 | 0.0625 | 0.6406 | –
10 | CS(=O)(=O)Nc1nc2c(-c3ccc(S(=O)(=O)N4CCNCC4)c(S(N)(=O)=O)c3-c3nn[nH]n3)cccc2s1 [Example 156, 3-(2-(Methylsulfonamido)benzo[d]thiazol-4-yl)-6-(piperazin-1-ylsulfonyl)-2-(2H-tetrazol-5-yl)benzenesulfonamide] | 6.25 | 1.74 | 2.00 | 0.898 | 0.29 | 12.5 | 25 | 6.25 | 12.5 | –
11 | Nc1nc2cccc(-c3ccc(S(=O)(=O)N4CCNCC4)c(S(N)(=O)=O)c3-c3nn[nH]n3)c2[nH]1 [Example 157, 3-(2-amino-3H-benzo[d]imidazol-4-yl)-6-(piperazin-1-ylsulfonyl)-2-(2H-tetrazol-5-yl)benzenesulfonamide] | 0.4453 | 0.827 | 4.00 | 3.09 | 0.32 | 1.781 | 1.281 | 0.125 | 0.8906 | –
12 | Cn1c(N)nc2c(-c3ccc(S(=O)(=O)N4CCNCC4)c(S(N)(=O)=O)c3-c3nn[nH]n3)cccc21 [Example 158, 3-(2-amino-1-methyl-1H-benzo[d]imidazol-4-yl)-6-(piperazin-1-ylsulfonyl)-2-(2H-tetrazol-5-yl)benzenesulfonamide] | 0.8906 | – | 3.51 | 1.71 | 0.601 | 3.125 | 1.781 | 0.25 | 0.8906 | 1.27
13 | Nc1nc2c(-c3ccc(S(=O)(=O)N4CCNCC4)c(S(N)(=O)=O)c3-c3nn[nH]n3)cccc2o1 [Example 159, 3-(2-aminobenzo[d]oxazol-4-yl)-6-(piperazin-1-ylsulfonyl)-2-(2H-tetrazol-5-yl)benzenesulfonamide] | 1.563 | 0.51 | 2.00 | 1.29 | 0.195 | 3.125 | 3.125 | 1.563 | 1.563 | –
